Structures can show the parent of a compound that is named as a salt.
Tests used:
Format in all cases: cell-based
RPMI-1975 = experiment: HoPI live cell staining; settings: single agent, 24 hours
Excerpt: (§1) A double stain of Hoechst 33342 and propidium iodide allows for the determination of cell viability with high specificity and low background noise, as compared to trypan blue staining. Hoechst 33342 is a cell permeable blue fluorescent nuclear stain which will stain all cell types. Propidium iodide is a cell impermeable red fluorescent nuclear stain that will only bind to the nuclei of cells with compromised membranes (dead cells). The staining can be performed rapidly on live cell suspensions within 15 minutes. 25 uL of 4× Hoechst 33342 Solution (40 ug/mL) and 25 uL of 4×Propidium Iodide Solution are added to 50 uL of cell suspension. The suspension was gently mixed 10 times and 50 uL was immediately transferred to a microfluidic cell counting chip. A 365 nm LED was used to excite both Hoechst 33342 and propidium iodide. Images of the cells were captured using a 10× objective lens on an Olympus microscope using a Canon EOS 6D camera using an ISO of 800 and an exposure of 2 seconds; both JPEG and RAW images were saved for analysis. The blue channel was used to measure the total number of cells and the red channel was used to measure the number of dead cells. Cell counting was performed automatically by the Image Pro software (Media Cybernetics, Inc).
MTA and EM effects on apoptosis were measured by Hoechst-Propidium Iodide staining (HoPI). For the assay, cells were seeded in 6-well plates at 400K cells per well, in 2 mL of 10% FBS-containing media and incubated for 24 hours. At 24 hours, a 1 nM to […] range of MTA and/or 1 ng/mL to 1 mg/mL range of EM doses was added and incubated for 24 hours. After 24 hours incubation respective cells' media was collected, added the 1× HBSS wash from the plate in the respective tube. Adherent cells were detached by treating with Accutase for 6 minutes and collected in respective tubes. All samples were centrifuged for 5 minutes at 1200 RPM. […] The area, mean intensity, standard deviation of the mean intensity, minimum intensity, maximum intensity and perimeter were measured for each cellular region in the red channel and also in the blue channel. […]

Ca-922 cell line = experiment: HoPI live cell staining; design: concentration or dose not given beside the values; settings: single agent, 24 hours
Excerpt: as §1
MTA and EM effects on apoptosis were measured by Hoechst-Propidium Iodide staining (HoPI). For the assay, cells were seeded in 6-well plates at 400K cells per well, in 2 mL of 10% FBS-containing media and incubated for 24 hours. At 24 hours, a 1 nM to […] range of MTA and/or 1 ng/mL to 1 mg/mL range of EM doses was added and incubated for 24 hours. After 24 hours incubation respective cells' media was collected, added the 1× HBSS wash from the plate in the respective tube. Adherent cells were detached by treating with Accutase for 6 minutes and collected in respective tubes. All samples were centrifuged for 5 minutes at 1200 RPM. The cell pellets were resuspended in PBS and centrifuged again for 5 minutes at 1200 RPM. Cell pellets were resuspended in 200 uL of PBS and mixed properly to get single cell suspension. 50 uL of cell suspension was added into separate tubes having 10 uL of a 2× HOPI solution (20 ug/mL Hoechst 33342 and 20 ug/mL propidium iodide solution) to get a final concentration of Hoechst 33342 and propidium iodide to […]. Make up the volume to 100 uL with 40 uL of PBS. Samples were mixed thoroughly for even cell staining and the microfluidsic chip wells were each filled with 10 uL of sample. Chips were then incubated in the dark for 20 minutes. A 365 nm LED was used to excite both Hoechst 33342 and propidium iodide as they were visualize under a microscope. Cell images were captured using a 10× objective lens on an Olympus microscope using a Canon EOS 6D camera with an ISO of 800 and an exposure of 2 seconds; both JPEG and RAW images were saved for analysis. The blue channel was used to measure the total number of cells and the red channel was used to measure the number of dead cells. For image analysis, a copy of the image was created and converted directly into an 8-bit gray scale image. A threshold was placed on the image to create a binary mask; the threshold level was 20 intensity units out of 255 intensity units. Next, a particle analysis algorithm was applied to the binary mask and a set of cellular regions (between 100 to 800 cellular regions per image) was created. The original image was then split into red, green and blue channels. The area, mean intensity, standard deviation of the mean intensity, minimum intensity, maximum intensity and perimeter were measured for each cellular region in the red channel and also in the blue channel. The green channel was discarded. To discern between live and dead cells, the maximum intensity in the red channel was used with a threshold of 100 intensity units. Double plots were created using the intensity of the blue channel (X-axis) and the intensity of the red channel (Y-axis). […]

[1] = tested on: H1975 (EGFR-double mutant line); experiment: MTT cell survival assay; settings: erlotinib 14 μM alone; H1975; 72 hours
Method: Cells (10^4 cells/well) were grown in 96-well plates and exposed for 72 hours to different doses of erlotinib, alone or in combination with EM2. The percentage of cell survival was determined using the 3-(4, 5-dimethylthiazol-2-yl)-2, 5-diphenyltetrazolium bromide (MTT). Single drug alone and vehicle were kept as controls.

A-253 cells = experiment: Western blot of protein biomarkers; settings: spermidine (50 μM)+GM-CSF (50 ng/mL)
Method: (§2) MTA and EM effects on protein biomarker expression were measured by western blotting. For the assay cell lines (Ca9-22, PE/CA-PJ15, HTB-38, HPAF-II, CAL27, BICR-16, A-253, Calu-6, PC-9, H1838, RPMI-7951 and A7) were cultured and treated with doses of MTAs alone, EMs alone and in combination and then lysed for protein analysis. This method can readily be conducted under adherent or suspension conditions, manually or on automated instruments, such as SnapPath. A total of 0.3×10^6 cells per well were seeded in 6 well plates with 10% FBS-containing media and incubated for 24 hours. Cells were then treated with MTA and/or EM concentrations for 24 hours. For total protein extraction, briefly, each sample media was collected, and wells were washed with HMS, and the wash was combined with its respective media collection. Cells were then detached using Accutase solution and again collected in its respective sample media and another HMS well wash and collection was performed. All cell solutions were centrifuged, washed with ice-cold PBS, and centrifuged again. Cell pellets were lysed in 250 μL of ice-cold 1× lysis buffer with protease and phosphatase inhibitor cocktails and incubated for 10 minutes on ice. Lysates were clarified with a centrifugation (14,000 rpm) for 10 minutes at 4° C. Cell lysates were quantified using Bio-Rad DC Protein Assay (Bio-Rad Cat. #5000116).
(§3) For all western blots, an equal amount of protein (3-5 μg) was loaded into SDS-polyacrylamide gels (Mini-Protean TGX Precast Gel; Bio-Rad, e.g. 7.5%, Cat. #4561024; 10%, Cat. #4561035; 12%, Cat. #4561045; or 4-15%, Cat. #4561085). Proteins were separated at 215V for at least 30 minutes in 1× Tris/Glycine/SDS buffer (Bio-Rad Cat. #1610772) and transferred to PVDF membranes using a Trans-Blot Turbo (Bio-Rad Cat. #1704155) for 7 minutes in transfer buffer (Trans-Blot Turbo Transfer Kit, Bio-Rad Cat. #1704273). Blots were blocked at room temperature for 1 hour with 5% non-fat dry milk in tris-buffered saline with Tween 20 (TBST; 15 mM Tris-HCl, pH 7.5, 200mMNaCl and 0.1% Tween 20). Membranes were incubated with primary antibodies at 4° C. overnight and at room temperature for 1 hour the next day; all primary antibodies were diluted following manufacturer's specifications in TBST with either 5% BSA or 5% non-fat dry milk. Membranes were washed in TBST for 5 minutes, three times, and incubated with HRP-conjugated secondary antibodies diluted 1:5000 in TBST with 5% non-fat dry milk at room temperature for 1 hour (anti-rabbit IgG, Bio-Rad Cat. #1706515; or anti-mouse IgG, Bio-Rad Cat. #1706516). Membranes were then washed in TBST for 10 minutes, three times, and target proteins were identified using Clarity Western ECL Substrate (Bio-Rad Cat. #1705061) on autoradiography film (GenHunter Cat. #B581, Nashville, Tenn., USA). Other assay types, such as Luminex multiplexed immunoassays, ICC, IHC, flow cytometry, etc. can be used readily.

[2] = tested on: panel of cell lines that included NSCLC, HNSCC, melanoma, and CRC; experiment: WST8 in vitro sensitivity to MTAs with and without EM
Method: Day 1: cells were harvested cells from flask (4 mL accutase for T175 for 3-5 minutes), and spin down for 5 mins at 1200 rpm. The supernatant was poured off, and the pellet gently resuspended in 1 mL media. Countess counts were performed, and the cells were diluted in media (10% FBS). With multi-channel pipette, 2500 cells were seeded in 100 uL of media (10% FBS) in each well of 96 well plate. The cells were let to adhere and grow for 24 hours. Day 2: serial drug dilutions of MTAs+/−EMs at 5× of concentrations (as done above) were performed in media (10% FBS). 20 uL of media form each well of the 96 well plate (80 uL media left in wells) was removed, and 20 uL of appropriate 5× drug dilutions was added to each respective well (for a 1× conc). The cells were incubated with drug for 72 hours in 37C incubator. Day 5: 10 uL of WST-8 reagent was added to each well of the 96 well plate and mixed gently. the plates were incubated up to 4 hours at 37C in dark, and absorbance readings were taken at […] and 600 nm wavelengths at 1, 2, 3 and 4h, until control absorbance levels were 1.5-2.0).
We used a panel of cell lines that included NSCLC, HNSCC, melanoma, and CRC. These cell lines are a good model system harboring similar (epi)genetic changes found in patients' tumors. We used the WST8 assay to determine the in vitro sensitivity to various MTAs with and without EM1.

PE/CA-PJ15 cells = experiment: Western blot of protein biomarkers; settings: spermidine (50 μM)+IL-12 (50 ng/mL)
Method: as §2, §3

Which “reduction in live cells (HoPI)” value (RPMI-1975) does the source give for `COc1ncc(-c2ccc3nccc(-c4ccnnc4)c3c2)cc1NS(=O)(=O)c1ccc(F)cc1F` [GSK458, Omipalisib, reference compound] here?
The value was 30%.

And the “reduction in the number of live cells (HoPI)” value (Ca-922 cell line)?
Its value is 22%.

How did the “cell survival (MTT), effect of erlotinib alone” value [1] turn out when `C#Cc1cccc(Nc2ncnc3cc(OCCOC)c(OCCOC)cc23)c1` [erlotinib, Erlotinib hydrochloride, reference compound] was run?
Its value is “absence of effect”.

For `C=CC(=O)Nc1cc(Nc2nccc(-c3cn(C)c4ccccc34)n2)c(OC)cc1N(C)CCN(C)C` [osimertinib, Osimertinib, reference compound], which “reduction in the number of live cells (HoPI)” value (Ca-922 cell line) is on record?
The value was 41%.

How did the Ki67 expression (A-253 cells; compared to both MTA and EM alone) turn out when “granulocyte-macrophage colony-stimulating factor [EM10]” was run?
The Ki67 expression was “enhanced reduction in Ki67 expression”.

And the LC3II expression (A-253 cells; compared to either alone)?
Its LC3II expression is “LC3II upregulation”.

What about the p62 expression (A-253 cells; compared to either alone) of the same molecule?
The p62 expression was “reduction in p62”.

interleukin 6 [EM4] was tested. Which “response enhancement (in vitro sensitivity to various MTAs with and without EM, WST8)” value [2] did it give?
Its value is “no, minimal and strong response enhancement”.

For transforming growth factor-beta-1 [EM3], which “response enhancement (in vitro sensitivity to various MTAs with and without EM, WST8)” value [2] is on record?
Its value is “no, minimal and strong response enhancement”.

B1: interleukin 12 (protein, UniProt P29459 23-219; P29460 23-328, looked up)
Interleukin-12 subunit alpha: RNLPVATPDPGMFPCLHHSQNLLRAVSNMLQKARQTLEFYPCTSEEIDHEDITKDKTSTVEACLPLELTKNESCLNSRETSFITNGSCLASRKTSFMMALCLSSIYEDLKMYQVEFKTMNAKLLMDPKRQIFLDQNMLAVIDELMQALNFNSETVPQKSSLEEPDFYKTKIKLCILLHAFRIRAVTIDRVMSYLNAS
Interleukin-12 subunit beta: IWELKKDVYVVELDWYPDAPGEMVVLTCDTPEEDGITWTLDQSSEVLGSGKTLTIQVKEFGDAGQYTCHKGGEVLSHSLLLLHKKEDGIWSTDILKDQKEPKNKTFLRCEAKNYSGRFTCWWLTTISTDLTFSVKSSRGSSDPQGVTCGAATLSAERVRGDNKEYEYSVECQEDSACPAAEESLPIEVMVDAVHKLKYENYTSSFFIRDIIKPDPPKNLQLKPLKNSRQVEVSWEYPDTWSTPHSYFSLTFCVQVQGKSKREKKDRVFTDKTSATVICRKNASISVRAQDRYYSSSWSEWASVPCS
notes: enhancer molecule, cytokine purchased from Sigma
Which p62 expression (PE/CA-PJ15 cells) does the source give for B1 here?
The p62 expression was “increased expression”.

What about the “LC3II over LC3I expression” value (PE/CA-PJ15 cells; 24 hours, compared to either alone) of the same molecule?
The value was “marked increase in LC3II over LC3I expression”.

Reference: patent publication US20220339257A1, “METHODS TO INCREASE THE SENSITIVITY AND REVERSING THE RESISTANCE TO DRUGS” (Biomarker Strategies, LLC, priority 2019, published 2022)
